Experimental data: PubChem BioAssay AID330 (DTP/NCI, 2004)
Several values for one entry are separate records, joined by “and”; a condition that tells them apart may be missing. Identical values can stand only once. Inconclusive results and toxic doses are left out. How the source made its calls: active means survival T/C of 150% or more; inactive means T/C below 125% in these data. Numbered stars: 1 amine (or outer) side, 2 acyl side, 3 side chain; on linkers, the order of the positions; unused ones are H or OH. Square brackets hold non-standard residues; d marks the D form. Peptide text beside a SMILES is read from it. X9 = C=CCC(O[*:1])C(=O)[*:2]; NMeV = CN[CH](C(=O)O)C(C)C; NMeA = CN[CH](C)C(=O)O; βAla = NCCC(=O)O

Test system: P388 leukemia ip, CD2F1 mice, survival T/C
Experiment: NCI In Vivo Anticancer Drug Screen. Data for tumor model P388 Leukemia (intraperitoneal) in CD2F1 (CDF1) mice
Details: endpoint: median survival time, higher = longer survival
How it was run: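 Mice carrying the transplanted tumor received test compound or vehicle. Survival was recorded in each group, and the value is the treated-group measurement divided by that of the vehicle-treated control group.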

[1] = dose: 50.0 mg/kg/injection, schedule: Q04DX002 (ip), vehicle: saline
[2] = dose: 100.0 mg/kg/injection, schedule: Q04DX002 (ip), vehicle: saline
[3] = dose: 200.0 mg/kg/injection, schedule: Q04DX002 (ip), vehicle: saline
[4] = dose: 12.5 mg/kg/injection, schedule: Q01DX009 (ip), vehicle: Klucel (hydroxypropylcellulose) (HPC)
[5] = dose: 25.0 mg/kg/injection, schedule: Q01DX009 (ip), vehicle: Klucel (hydroxypropylcellulose) (HPC)
[6] = dose: 50.0 mg/kg/injection, schedule: Q01DX009 (ip), vehicle: Klucel (hydroxypropylcellulose) (HPC)
[7] = dose: 100.0 mg/kg/injection, schedule: Q01DX009 (ip), vehicle: Klucel (hydroxypropylcellulose) (HPC)
[8] = dose: 200.0 mg/kg/injection, schedule: Q01DX009 (ip), vehicle: Klucel (hydroxypropylcellulose) (HPC)
[9] = dose: 25.0 mg/kg/injection, schedule: Q01DX009 (ip), vehicle: saline
[10] = dose: 50.0 mg/kg/injection, schedule: Q01DX009 (ip), vehicle: saline with Tween-80
[11] = dose: 100.0 mg/kg/injection, schedule: Q01DX009 (ip), vehicle: saline with Tween-80
[12] = dose: 200.0 mg/kg/injection, schedule: Q01DX009 (ip), vehicle: saline with Tween-80
[13] = dose: 60.0 mg/kg/injection, schedule: Q01DX005 (ip), vehicle: saline with Tween-80
[14] = dose: 120.0 mg/kg/injection, schedule: Q01DX005 (ip), vehicle: saline with Tween-80
[15] = dose: 100.0 mg/kg/injection, schedule: Q04DX003 (ip), vehicle: saline with Tween-80
[16] = dose: 200.0 mg/kg/injection, schedule: Q04DX003 (ip), vehicle: saline with Tween-80
[17] = dose: 50.0 mg/kg/injection, schedule: Q01DX005 (ip), vehicle: saline with Tween-80

Measured: T/C

C=C[Se](=C(C#N)C#N)c1ccccc1 (stereo unspecified)
inactive: dose: 25.0 mg/kg/injection, schedule: Q04DX002 (ip), vehicle: saline 111 % of control | [1] 104 % of control | [2] 99 % of control and 101 % of control | [3] 110 % of control | dose: 400.0 mg/kg/injection, schedule: Q04DX002 (ip), vehicle: saline 118 % of control

N#CC1=NOC(C(N)C(=O)O)C1 (stereo unspecified)
inactive: [1] 103 % of control | [2] 100 % of control | [3] 98 % of control

O=C1c2cccc([N+](=O)[O-])c2C(=O)c2nccnc21
inactive: dose: 6.0 mg/kg/injection, schedule: Q01DX005 (ip), vehicle: Klucel (hydroxypropylcellulose) (HPC) 100 % of control | dose: 12.0 mg/kg/injection, schedule: Q01DX005 (ip), vehicle: Klucel (hydroxypropylcellulose) (HPC) 107 % of control

Cc1ccc(S(=O)(=O)N(C)C2c3ccccc3Oc3ccccc32)cc1
inactive: [4] 106 % of control | [5] 106 % of control | [6] 106 % of control and 87 % of control | [7] 91 % of control | [8] 92 % of control | dose: 400.0 mg/kg/injection, schedule: Q01DX009 (ip), vehicle: Klucel (hydroxypropylcellulose) (HPC) 92 % of control

CC(=O)OCC1OC([n+]2cccc(C(N)=O)c2)C(OC(C)=O)C(OC(C)=O)C1OC(C)=O (stereo unspecified)
inactive: [9] 100 % of control | dose: 50.0 mg/kg/injection, schedule: Q01DX009 (ip), vehicle: saline 101 % of control | dose: 100.0 mg/kg/injection, schedule: Q01DX009 (ip), vehicle: saline 100 % of control | dose: 200.0 mg/kg/injection, schedule: Q01DX009 (ip), vehicle: saline 103 % of control

CC1(C)OC2(c3ccccc3)N(c3ccc([N+](=O)[O-])cc3)N=C(c3ccccc3)N2c2ccccc21 (stereo unspecified)
inactive: dose: 100.0 mg/kg/injection, schedule: Q01DX001 (ip), vehicle: saline with Tween-80 89 % of control | dose: 200.0 mg/kg/injection, schedule: Q01DX001 (ip), vehicle: saline with Tween-80 89 % of control | dose: 400.0 mg/kg/injection, schedule: Q01DX001 (ip), vehicle: saline with Tween-80 88 % of control

COc1cc(C(=O)NN=C2c3ccccc3-c3ccccc32)cc(OC)c1OC
inactive: [10] 93 % of control | [11] 88 % of control | [12] 87 % of control

CCCCOP(=O)(O)SP(=O)(O)OCCCC
inactive: dose: 100.0 mg/kg/injection, schedule: Q01DX001 (ip), vehicle: Klucel (hydroxypropylcellulose) (HPC) 103 % of control | dose: 100.0 mg/kg/injection, schedule: Q01DX001 (ip), vehicle: saline 103 % of control and 106 % of control and 98 % of control | dose: 100.0 mg/kg/injection, schedule: Q04DX003 (ip), vehicle: suspension in saline 105 % of control | dose: 200.0 mg/kg/injection, schedule: Q01DX001 (ip), vehicle: Klucel (hydroxypropylcellulose) (HPC) 119 % of control | dose: 200.0 mg/kg/injection, schedule: Q01DX001 (ip), vehicle: saline 106 % of control and 98 % of control and 103 % of control | dose: 200.0 mg/kg/injection, schedule: Q04DX003 (ip), vehicle: suspension in saline 105 % of control | dose: 400.0 mg/kg/injection, schedule: Q01DX001 (ip), vehicle: Klucel (hydroxypropylcellulose) (HPC) 104 % of control | dose: 400.0 mg/kg/injection, schedule: Q01DX001 (ip), vehicle: saline 106 % of control and 103 % of control and 94 % of control | dose: 400.0 mg/kg/injection, schedule: Q04DX003 (ip), vehicle: suspension in saline 110 % of control

CC1OS(=O)(=O)CS(=O)(=O)OC1C (stereo unspecified)
inactive: [13] 101 % of control | [14] 101 % of control

CCN(CC)S(=O)(=O)c1ccc(OC)c(N)c1
inactive: [10] 90 % of control | [11] 95 % of control | [15] 90 % of control | [12] 90 % of control | [16] 90 % of control

CC1(C)CCCC(C)(C2CCC3(C)C2C(O)CC2C4(C)CCC(O)C(C)(C)C4C(O)CC23C)O1 (stereo unspecified)
inactive: dose: 6.25 mg/kg/injection, schedule: Q01DX009 (ip), vehicle: Klucel (hydroxypropylcellulose) (HPC) 101 % of control | [4] 99 % of control | [5] 96 % of control | [6] 92 % of control | [7] 92 % of control

CSc1nc(N)c(C(=O)Nc2ccc3ccccc3c2)s1
inactive: [6] 107 % of control | [7] 98 % of control | [8] 99 % of control

C=CCC1OC(=O)CCNC(=O)C(C)N(C)C(=O)C(C(C)C)N(C)C(=O)C(C(C)CC)NC(=O)C2CCCN2C1=O (stereo unspecified) (cyclo([X9]PI[NMeV][NMeA][βAla]); configuration not given here)
inactive: dose: 1.56 mg/kg/injection, schedule: Q01DX005 (ip), vehicle: water 94 % of control | dose: 3.12 mg/kg/injection, schedule: Q01DX005 (ip), vehicle: water 95 % of control | dose: 6.25 mg/kg/injection, schedule: Q01DX005 (ip), vehicle: water 101 % of control | dose: 12.5 mg/kg/injection, schedule: Q01DX005 (ip), vehicle: water 104 % of control

[Cl][Pt]([Cl])([Cl])[Cl].c1ccc2[nH]cnc2c1.c1ccc2[nH]cnc2c1
inactive: dose: 1.56 mg/kg/injection, schedule: Q01DX005 (ip), vehicle: saline with Tween-80 87 % of control | dose: 3.12 mg/kg/injection, schedule: Q01DX005 (ip), vehicle: saline with Tween-80 97 % of control | dose: 6.25 mg/kg/injection, schedule: Q01DX005 (ip), vehicle: saline with Tween-80 94 % of control | [17] 99 % of control and 96 % of control

O=C(Nc1ccc2c(c1)OCO2)O/N=C1\C(=O)Nc2ccccc21
inactive: dose: 25.0 mg/kg/injection, schedule: Q04DX003 (ip), vehicle: saline with Tween-80 100 % of control | dose: 50.0 mg/kg/injection, schedule: Q04DX003 (ip), vehicle: saline with Tween-80 90 % of control | [15] 90 % of control

C(/Oc1ccc(-c2ccccc2)cc1)=C(/c1ccccc1)c1ccccc1-c1ccccc1
inactive: dose: 50.0 mg/kg/injection, schedule: Q01DX005 (ip), vehicle: Klucel (hydroxypropylcellulose) (HPC) 101 % of control | dose: 100.0 mg/kg/injection, schedule: Q01DX005 (ip), vehicle: Klucel (hydroxypropylcellulose) (HPC) 99 % of control | dose: 200.0 mg/kg/injection, schedule: Q01DX005 (ip), vehicle: Klucel (hydroxypropylcellulose) (HPC) 92 % of control

C/C(Cl)=C/CN(C/C=C(/C)Cl)CCO
inactive: [17] 101 % of control | dose: 100.0 mg/kg/injection, schedule: Q01DX005 (ip), vehicle: saline with Tween-80 102 % of control

Oc1ccc2ccccc2c1N=Nc1ccc(Cl)cc1
inactive: [15] 100 % of control | [16] 100 % of control | dose: 400.0 mg/kg/injection, schedule: Q04DX003 (ip), vehicle: saline with Tween-80 90 % of control

CCOC(=O)NCC(C)(C)CNC(=O)OCC
inactive: dose: 3.13 mg/kg/injection, schedule: Q01DX009 (ip), vehicle: saline 100 % of control | dose: 6.25 mg/kg/injection, schedule: Q01DX009 (ip), vehicle: saline 105 % of control | dose: 12.5 mg/kg/injection, schedule: Q01DX009 (ip), vehicle: saline 105 % of control | [9] 103 % of control

CCOC(=O)C(C)(C)Oc1ccc(N=[N+]=[N-])cc1
inactive: [13] 100 % of control | [14] 104 % of control | dose: 240.0 mg/kg/injection, schedule: Q01DX005 (ip), vehicle: saline with Tween-80 109 % of control
